pIC50: −log10 of the molar value. Active and inactive are the calls of the source.
Key:
[1] = system: T47D; experiment: Growth inhibition of human T47D cells at 10 uM after 48 hrs; type: functional
[2] = system: Pseudomonas aeruginosa; experiment: Antimicrobial activity against Pseudomonas aeruginosa assessed as inhibition zone at 200 ug/disk after 24 hrs by disc-diffusion method; type: functional; details: read-out: IZ
[3] = system: Staphylococcus aureus; experiment: Antimicrobial activity against Staphylococcus aureus assessed as inhibition zone at 200 ug/disk after 24 hrs by disc-diffusion method; type: functional; details: read-out: IZ
[4] = system: CAKI-1; experiment: Growth inhibition of human CAKI-1 cells at 10 uM after 48 hrs; type: functional
[5] = system: K562; experiment: Growth inhibition of human K562 cells at 10 uM after 48 hrs; type: functional
[6] = system: SR; experiment: Growth inhibition of human SR cells at 10 uM after 48 hrs; type: functional
[7] = (§1) Growth inhibition of human UO31 cells at 10 uM after 48 hrs; type: functional; details: UO-31, 48 h, read-out: GI
[8] = system: HL-60(TB); experiment: Growth inhibition of human HL-60(TB) cells at 10 uM after 48 hrs; type: functional
[9] = (§2) Growth inhibition of human SF295 cells at 10 uM after 48 hrs; type: functional; details: SF-295, 48 h, read-out: GI
[10] = system: Candida albicans; experiment: Antimicrobial activity against Candida albicans assessed as inhibition zone at 200 ug/disk after 24 hrs by disc-diffusion method; type: functional; details: read-out: IZ
[11] = system: A498; experiment: Growth inhibition of human A498 cells at 10 uM after 48 hrs; type: functional
[12] = system: Escherichia coli; experiment: Antimicrobial activity against Escherichia coli assessed as inhibition zone at 200 ug/disk after 24 hrs by disc-diffusion method; type: functional; details: read-out: IZ
[13] = biological target: T1, Dihydrofolate reductase (Bos taurus, UniProt P00376); experiment: Inhibition of bovine liver DHFR
T1 sequence (P00376 whole entry): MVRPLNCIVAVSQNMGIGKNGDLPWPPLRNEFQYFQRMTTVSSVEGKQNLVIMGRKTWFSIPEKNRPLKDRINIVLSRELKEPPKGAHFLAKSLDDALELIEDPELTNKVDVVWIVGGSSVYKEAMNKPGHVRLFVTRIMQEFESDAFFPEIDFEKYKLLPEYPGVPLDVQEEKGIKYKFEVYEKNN

[14] = system: Bacillus subtilis; experiment: Antimicrobial activity against Bacillus subtilis assessed as inhibition zone at 200 ug/disk after 24 hrs by disc-diffusion method; type: functional; details: read-out: IZ
[15] = system: U-251; experiment: Growth inhibition of human U251 cells at 10 uM after 48 hrs; type: functional
[16] = (§3) Growth inhibition of human HOP92 cells at 10 uM after 48 hrs; type: functional; details: HOP-92, 48 h, read-out: GI
[17] = system: Malme-3M; experiment: Growth inhibition of human MALME-3M cells at 10 uM after 48 hrs; type: functional
[18] = (§4) Growth inhibition of human Hs 578T cells at 10 uM after 48 hrs; type: functional; details: read-out: GI
[19] = system: SNB-19; experiment: Growth inhibition of human SNB19 cells at 10 uM after 48 hrs; type: functional
[20] = (§5) Growth inhibition of human PC3 cells at 10 uM after 48 hrs; type: functional; details: PC-3, 48 h, read-out: GI
[21] = system: SK-MEL-5; experiment: Growth inhibition of human SK-MEL-5 cells at 10 uM after 48 hrs; type: functional
[22] = system: HOP-62; experiment: Growth inhibition of human HOP62 cells at 10 uM after 48 hrs; type: functional
[23] = system: A549; experiment: Growth inhibition of human A549 cells at 10 uM after 48 hrs; type: functional
[24] = system: HT-29; experiment: Growth inhibition of human HT-29 cells at 10 uM after 48 hrs; type: functional
[25] = system: MOLT-4; experiment: Growth inhibition of human MOLT4 cells at 10 uM after 48 hrs; type: functional
[26] = system: OVCAR-4; experiment: Growth inhibition of human OVCAR4 cells at 10 uM after 48 hrs; type: functional
[27] = system: HCT-116; experiment: Growth inhibition of human HCT116 cells at 10 uM after 48 hrs; type: functional
[28] = system: MDA-MB-435; experiment: Growth inhibition of human MDA-MB-435 cells at 10 uM after 48 hrs; type: functional
[29] = system: MDA-MB-231; experiment: Growth inhibition of human MDA-MB-231 cells at 10 uM after 48 hrs; type: functional
[30] = system: UO-31; experiment: as §1; type: functional
[31] = system: SK-MEL-28; experiment: Growth inhibition of human SK-MEL-28 cells at 10 uM after 48 hrs; type: functional, cell-based
[32] = system: SF-295; experiment: as §2; type: functional
[33] = system: RPMI-8226; experiment: Growth inhibition of human RPMI8226 cells at 10 uM after 48 hrs; type: functional
[34] = system: Escherichia coli; experiment: Antimicrobial activity against Escherichia coli assessed as inhibition of visible growth after 24 hrs by disc-diffusion method; type: functional, organism-based
[35] = system: 786-0; experiment: Growth inhibition of human 786-0 cells at 10 uM after 48 hrs; type: functional
[36] = system: UACC-62; experiment: Growth inhibition of human UACC62 cells at 10 uM after 48 hrs; type: functional
[37] = system: KM12; experiment: Growth inhibition of human KM12 cells at 10 uM after 48 hrs; type: functional
[38] = system: HOP-92; experiment: as §3; type: functional
[39] = system: HCT-15; experiment: Growth inhibition of human HCT15 cells at 10 uM after 48 hrs; type: functional
[40] = system: MCF7; experiment: Growth inhibition of human MCF7 cells at 10 uM after 48 hrs; type: functional
[41] = system: Hs-578T; experiment: as §4; type: functional
[42] = system: CCRF-CEM; experiment: Growth inhibition of human CCRF-CEM cells at 10 uM after 48 hrs; type: functional
[43] = system: Staphylococcus aureus; experiment: Antimicrobial activity against Staphylococcus aureus assessed as inhibition of visible growth after 24 hrs by disc-diffusion method; type: functional, organism-based
[44] = system: UACC-257; experiment: Growth inhibition of human UACC257 cells at 10 uM after 48 hrs; type: functional
[45] = system: NCI-H522; experiment: Growth inhibition of human NCI-H522 cells at 10 uM after 48 hrs; type: functional
[46] = system: RXF 393; experiment: Growth inhibition of human RXF393 cells at 10 uM after 48 hrs; type: functional
[47] = system: Bacillus subtilis; experiment: Antimicrobial activity against Bacillus subtilis assessed as inhibition of visible growth after 24 hrs by disc-diffusion method; type: functional, organism-based
[48] = system: MDA-MB-468; experiment: Growth inhibition of human MDA-MB-468 cells at 10 uM after 48 hrs; type: functional
[49] = system: PC-3; experiment: as §5; type: functional
[50] = system: NCI-H226; experiment: Growth inhibition of human NCI-H226 cells at 10 uM after 48 hrs; type: functional
[51] = system: SF-539; experiment: Growth inhibition of human SF539 cells at 10 uM after 48 hrs; type: functional

COc1cc2nc(Sc3nnc(N)s3)n(-c3ccc(Cl)cc3)c(=O)c2cc1OC
23.6%: inhibition of growth at 10 µM [7]
8 mm: zone of inhibition at 200 µg/disc [2] | zone of inhibition at 200 µg/disc [3] | zone of inhibition at 200 µg/disc [10] | zone of inhibition at 200 µg/disc [12] | zone of inhibition at 200 µg/disc [14]
12.6%: inhibition of growth at 10 µM ([4]; CAKI-1, 48 h, read-out: GI)
11.9%: inhibition of growth at 10 µM ([19]; SNB-19, 48 h, read-out: GI)
5.22: pIC50 [13]
12.1%: inhibition of growth at 10 µM [9]
15.3%: inhibition of growth at 10 µM ([5]; K562, 48 h, read-out: GI)
10.9%: inhibition of growth at 10 µM [18]
31.5%: inhibition of growth at 10 µM ([8]; HL-60, 48 h, read-out: GI)
18.8%: inhibition of growth at 10 µM ([11]; A498, 48 h, read-out: GI)
11.5%: inhibition of growth at 10 µM ([15]; U-251, 48 h, read-out: GI)
14.4%: inhibition of growth at 10 µM ([6]; read-out: GI)
13.7%: inhibition of growth at 10 µM ([1]; read-out: GI)
40.9%: inhibition of growth at 10 µM [16]
12.4%: inhibition of growth at 10 µM ([17]; read-out: GI)
11.2%: inhibition of growth at 10 µM [20]

Cc1ccc(-n2c(Sc3nnc(N)s3)nc3ccc(Cl)cc3c2=O)cc1
inactive: growth inhibition (GI) [21] | growth inhibition (GI) [22] | growth inhibition (GI) [1] | growth inhibition (GI) [23] | growth inhibition (GI) [24] | growth inhibition (GI) [25] | growth inhibition (GI) [26] | growth inhibition (GI) [4] | growth inhibition (GI) [27] | growth inhibition (GI) [28] | growth inhibition (GI) [29] | growth inhibition (GI) [5] | growth inhibition (GI) [6] | growth inhibition (GI) [30] | growth inhibition (GI) [31] | growth inhibition (GI) [8] | growth inhibition (GI) [32] | growth inhibition (GI) [33] | growth inhibition (GI) [11] | growth inhibition (GI) [35] | growth inhibition (GI) [36] | growth inhibition (GI) [37] | growth inhibition (GI) [15] | growth inhibition (GI) [38] | growth inhibition (GI) [39] | growth inhibition (GI) [17] | growth inhibition (GI) [40] | growth inhibition (GI) [41] | growth inhibition (GI) [42] | growth inhibition (GI) [19] | growth inhibition (GI) [44] | growth inhibition (GI) [45] | growth inhibition (GI) [46] | growth inhibition (GI) [48] | growth inhibition (GI) [49] | growth inhibition (GI) [50] | growth inhibition (GI) [51]
18 mm: zone of inhibition at 200 µg/disc [3] | zone of inhibition at 200 µg/disc [12]
10 mm: zone of inhibition at 200 µg/disc [10]
5.10: pIC50 [13]
20 mm: zone of inhibition at 200 µg/disc [14]
active: Activity [34] | Activity [43] | Activity [47]
14 mm: zone of inhibition at 200 µg/disc [2]

Cc1ccc2nc(Sc3nnc(N)s3)n(-c3ccc(Cl)cc3)c(=O)c2c1
24 mm: zone of inhibition at 200 µg/disc [3]
inactive: growth inhibition (GI) [21] | growth inhibition (GI) [22] | growth inhibition (GI) [1] | growth inhibition (GI) [23] | growth inhibition (GI) [24] | growth inhibition (GI) [25] | growth inhibition (GI) [26] | growth inhibition (GI) [4] | growth inhibition (GI) [27] | growth inhibition (GI) [28] | growth inhibition (GI) [29] | growth inhibition (GI) [5] | growth inhibition (GI) [6] | growth inhibition (GI) [30] | growth inhibition (GI) [31] | growth inhibition (GI) [8] | growth inhibition (GI) [32] | growth inhibition (GI) [33] | growth inhibition (GI) [11] | growth inhibition (GI) [35] | growth inhibition (GI) [36] | growth inhibition (GI) [37] | growth inhibition (GI) [15] | growth inhibition (GI) [38] | growth inhibition (GI) [39] | growth inhibition (GI) [17] | growth inhibition (GI) [40] | growth inhibition (GI) [41] | growth inhibition (GI) [42] | growth inhibition (GI) [19] | growth inhibition (GI) [44] | growth inhibition (GI) [45] | growth inhibition (GI) [46] | growth inhibition (GI) [48] | growth inhibition (GI) [49] | growth inhibition (GI) [50] | growth inhibition (GI) [51]
active: Activity [34] | Activity [43] | Activity [47]
6.15: pIC50 [13]
26 mm: zone of inhibition at 200 µg/disc [14]
8 mm: zone of inhibition at 200 µg/disc [10]
12 mm: zone of inhibition at 200 µg/disc [2]
18 mm: zone of inhibition at 200 µg/disc [12]

Source: ChEMBL document CHEMBL3352542, “Synthesis, biological evaluation and molecular modeling study of 2-(1,3,4-thiadiazolyl-thio and 4-methyl-thiazolyl-thio)-quinazolin-4-ones as a new class of DHFR inhibitors” (Bioorg Med Chem Lett, 2014)
